Experimental data from US12435109B2, “Compositions and methods for dissolving protein aggregates” (REJUKON BIOPHARM INC., priority 2020, dated 2025).
Entries after “also recorded” stand apart in the source; their conditions may differ.

Assays:
[1] = tested on: FUS protein aggregates in SH-SY5Y cells; test: FUS protein aggregates in heat-shocked SH-SY5Y cell model overexpressing FUS; type: cell-based; conditions: heat shock 42° C. 1 hour, 1 μg polypeptide-plasmid
Excerpt: Polypeptides RJK001˜RJK004 and control polypeptides RJK005˜RJK007 were transfected into the SH-SY5Y cell model overexpressing FUS-mCherry after heat stimulation. The staining of G3BP1 represents the stress granule.
Polypeptides RJG001˜RJG003 and control polypeptide RJK005 were transfected into the SH-SY5Y cell model overexpressing FUS-mCherry after heat stimulation. The staining of G3BP1 represents the stress granule.
(§1) An SH-SY5Y cell model that overexpresses FUS-GFP protein or TDP-43-mCherry protein was generated using the following steps:
SH-SY5Y cells were cultured in DMEM/F12 medium containing 10% fetal bovine serum in a 37° C., 5% carbon dioxide incubator. […]
(§2) The SH-SY5Y cell model (initially cultured at 37° C.) transfected with the FUS plasmid according to Example 2 was placed in a 42° C. incubator for 1 hour for heat shock treatment to cause FUS protein aggregation. […] Laser confocal fluorescence microscope was used to observe the accumulation of overexpressed FUS in SH-SY5Y cells.
as §2

[2] = tested on: TIA1 protein aggregates in SH-SY5Y cells; test: TIA1 protein aggregates in heat-shocked SH-SY5Y cell model; type: cell-based; conditions: heat shock 42° C. 1 hour, 1 μg polypeptide-plasmid
[3] = tested on: TDP-43 protein aggregates in SH-SY5Y cells; test: TDP-43 protein aggregates in heat-shocked SH-SY5Y cell model overexpressing TDP-43-mCherry; type: cell-based; conditions: SH-SY5Y overexpressing TDP-43-mCherry, heat shock 42° C. 1 hour, 1 μg polypeptide-plasmid
Procedure: Polypeptides RJK001˜RJK004 and control polypeptides RJK005˜RJK007 were transfected into the SH-SY5Y cell model overexpressing TDP-43-mCherry after heat stimulation. The staining of G3BP1 represents the stress granule.
as §1
SH-SY5Y cells were cultured in DMEM/F12 medium containing 10% fetal bovine serum in a 37° C., 5% carbon dioxide incubator. After the cell confluence reaches 80%, the culture medium was removed using a vacuum pump or pipette. The cells were washed once with PBS. Add trypsin-EDTA (0.05%) to the culture dish and incubate it in a 37° C. cell incubator for 1 min. Add twice the volume of culture medium to stop the digestion, and gently blow the cells to suspend the cells into a uniform cell suspension. Add the cell suspension to a 15 mL centrifuge tube and centrifuge at 1200 rpm for 3 minutes. Discard the supernatant and resuspend the cells in fresh complete medium. […]
The SH-SY5Y cell model (initially cultured at 37° C.) transfected with the TDP-43 plasmid prepared according to Example 2 was placed in a 42° C. incubator for 1 hour for heat shock treatment to cause the TDP43 protein to separate and aggregate. […] Laser confocal fluorescence microscopy was used to observe the accumulation of TDP-43 and cell-endogenous G3BP1 in SH-SY5Y cells.

[4] = tested on: FUS-GFP protein aggregates in motor neurons; test: FUS-GFP protein aggregates in primary cultured motor neurons, live imaging; type: cell-based, rat; conditions: 20 μM polypeptide
Procedure: Real-time imaging technology using fluorescence microscope was used to observe the cell culture. […] The left 2-3 images are the microscopic images when the polypeptides were just added (0 min); the middle images are the microscopic images at different time points (30 minutes, 60 minutes, 90 minutes) after the polypeptides were added, and the right image is the microscopic image at 120 minutes after adding the polypeptides.
(§3) An ALS rat motor neuron model that can be used to overexpress FUS-GFP protein and SOD1 (G93A) protein was generated using the following steps.
After the E13.5 rat is anesthetized, open the abdominal cavity and take out the uterus to a 10 cm dish. Add HBSS, use scissors and tweezers to remove the embryos to a new 10 cm dish. Separate the head and trunk of the embryo and move to anatomical spinal cord under a stereoscope. With the torso facing up, fix the hind limbs with a microscopic forceps. After finding the translucent spine, use another microscopic forceps to lift the skin forward and upward, and then open the connection on the side of the spine. Pick up the spine from the tail. Fix the head of the spine with the back side facing up and pick up the membrane. Turn the abdomen up, peel off the membrane, most of the DRG was removed. Remove the DRG attached to the spinal cord and move to a new 6 cm dish. Use micro tweezers to move the spinal cord to a 5 ml centrifuge tube, use tweezers to crush it to a size of 1 mm, add 1× Trypsin (diluted by HBSS), and place in a 37° C. incubator for 25-30 minutes. Use a 1 ml pipette tip to suck the tissue mass into the preheated 3 ml MN Medium and blow away the tissue mass. Pass the 40 um filer, transfer the cells to a 5 ml centrifuge tube, centrifuge at 400 g, 5 min to remove the supernatant. Resuspend the cells in 3 mlMN medium, take 10 ul and count. […]
A rat motor neuron model of ALS pathogenic FUS protein aggregates was prepared according to Example 4. […] The dissolution effect of the polypeptides on proteins aggregates in motor neurons was recorded with live images using laser confocal fluorescence microscope. […]

[5] = tested on: SOD1(G93A)-GFP protein aggregates in motor neurons; test: SOD1(G93A) protein aggregates in primary cultured motor neurons, live imaging; type: cell-based, rat; conditions: 20 μM polypeptide
Procedure: Real-time imaging technology using fluorescence microscope was used to observe the cell culture. The left panel is the polypeptide RJK001; the right panel is the control polypeptide RJK005. […] The right image in each panel is the microscopic image at 24 hours after adding the polypeptides.
as §3
After the E13.5 rat is anesthetized, open the abdominal cavity and take out the uterus to a 10 cm dish. Add HBSS, use scissors and tweezers to remove the embryos to a new 10 cm dish. Separate the head and trunk of the embryo and move to anatomical spinal cord under a stereoscope. With the torso facing up, fix the hind limbs with a microscopic forceps. After finding the translucent spine, use another microscopic forceps to lift the skin forward and upward, and then open the connection on the side of the spine. Pick up the spine from the tail. Fix the head of the spine with the back side facing up and pick up the membrane. Turn the abdomen up, peel off the membrane, most of the DRG was removed. […]
A rat motor neuron model of ALS pathogenic SOD1 (G93A) protein aggregates was prepared according to Example 4. […] The dissolution effect of the polypeptides on proteins aggregates in motor neurons was recorded with live images using laser confocal fluorescence microscope. […]

Sequence: TEPQEESEEEVEEPEERQQTPEVVPDDSGTFYDQTVSNDLE [RJK001, polypeptide capable of dissolving protein aggregates]
- dissolution of FUS protein aggregates / number of phase-separated droplets of FUS protein in SH-SY5Y cells versus control [1]: significantly less; also recorded: significant dissolving effect
- dissolution of TIA1 protein aggregates / number of phase-separated droplets of TIA1 protein in SH-SY5Y cells versus control [2]: significantly less; also recorded: significant dissolving effect
- dissolution of TDP-43 protein aggregates / number of phase-separated droplets of TDP-43 protein in SH-SY5Y cells versus control [3]: significantly less; also recorded: significant dissolving effect
- aggregation of ALS pathogenic FUS protein in motor neurons at 90 minutes after adding polypeptide ([4]; 90 minutes): began to dissolve significantly
- aggregation of ALS pathogenic FUS protein in motor neurons after 120 minutes ([4]; 120 minutes): essentially dissolved
- dissolving effect on FUS protein aggregates in motor neurons ([4]; motor neurons, day 10 in vitro, up to 120 minutes): significant dissolving effect; also recorded: enhanced the dissolution
- aggregation of SOD1 (G93A) protein in motor neurons at 24 hours after adding polypeptide [5]: dissolved significantly
- dissolving effect on SOD1 (G93A) protein aggregates in motor neurons ([5]; motor neurons, day 10 in vitro, 24 hours): significant dissolving effect; also recorded: enhanced the dissolution
